Experimental data taken from the supplement of paper PMC12463676, “Small-molecule dissolution of stress granules by redox modulation benefits ALS models” (Nature Chemical Biology, 2025).

What was measured:
lipoamide = compound: NC(=O)CCCCC1CCSS1 [lipoamide]; test: thermal stability z-score vs DMSO; higher = more thermally stabilized by treatment; conditions: HeLa, lipoamide concentration 100 µM
Method: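 Cellular thermal proteome profiling in HeLa cells. Cells were treated with 100 µM lipoamide for 1 h, with or without 1 mM arsenate for a further 1 h, then heated to ten temperatures (37-66.3 °C), and soluble protein was quantified by TMT mass spectrometry relative to 0.1% DMSO controls. The thermal stability score (sum of log2 fold changes minus the abundance score) was transformed to a z-score; mean of n = 3 experiments.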

potassium arsenate = compound: O=[As]([O-])(O)O.[K+] [potassium arsenate]; test: as above; conditions: HeLa; arsenate concentration 1 mM
Method: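 Cellular thermal proteome profiling in HeLa cells treated with 1 mM arsenate for 1 h (DMSO pretreatment), heated to ten temperatures (37-66.3 °C). Soluble protein was quantified by TMT mass spectrometry relative to DMSO controls; the thermal stability score was transformed to a z-score; mean of n = 3 experiments.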

[1] = arsenate co-treatment: 1 mM arsenate 1 h
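Also: each temperature applied for 3 min, abundance score taken as mean log2 fold change at the two lowest temperatures, z-score obtained by mean subtraction and division by SD.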

Sequence of UniProt Q4ZIN3 (Q4ZIN3 whole entry): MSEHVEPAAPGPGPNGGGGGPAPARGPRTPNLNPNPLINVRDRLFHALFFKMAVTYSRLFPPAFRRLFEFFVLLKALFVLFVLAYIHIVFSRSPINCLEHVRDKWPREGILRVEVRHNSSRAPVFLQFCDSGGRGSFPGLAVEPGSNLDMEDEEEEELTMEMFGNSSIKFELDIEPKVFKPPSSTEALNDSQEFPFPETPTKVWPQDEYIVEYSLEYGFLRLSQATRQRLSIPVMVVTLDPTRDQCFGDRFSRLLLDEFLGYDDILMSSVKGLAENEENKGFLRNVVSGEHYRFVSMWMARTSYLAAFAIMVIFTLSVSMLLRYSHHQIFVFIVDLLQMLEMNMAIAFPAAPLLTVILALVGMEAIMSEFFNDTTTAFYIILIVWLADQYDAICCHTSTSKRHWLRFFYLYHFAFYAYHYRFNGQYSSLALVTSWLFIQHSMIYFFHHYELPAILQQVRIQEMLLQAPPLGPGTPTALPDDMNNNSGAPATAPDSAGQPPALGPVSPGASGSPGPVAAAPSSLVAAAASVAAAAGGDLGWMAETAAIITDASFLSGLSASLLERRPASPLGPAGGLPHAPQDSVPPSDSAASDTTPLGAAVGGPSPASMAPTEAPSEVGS
Sequence of UniProt P63313 (P63313 whole entry): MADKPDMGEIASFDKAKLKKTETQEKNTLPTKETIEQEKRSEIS
Sequence of UniProt Q71RG4 (Q71RG4 whole entry): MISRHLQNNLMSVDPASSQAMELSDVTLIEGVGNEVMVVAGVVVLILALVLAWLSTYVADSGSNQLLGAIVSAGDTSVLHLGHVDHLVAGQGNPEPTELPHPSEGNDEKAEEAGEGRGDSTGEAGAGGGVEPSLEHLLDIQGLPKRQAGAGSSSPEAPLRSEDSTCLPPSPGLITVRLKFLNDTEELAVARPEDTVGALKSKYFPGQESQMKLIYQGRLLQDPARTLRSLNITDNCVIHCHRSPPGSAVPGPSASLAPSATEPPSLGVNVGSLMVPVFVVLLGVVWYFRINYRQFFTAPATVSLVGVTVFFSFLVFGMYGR
Sequence of UniProt Q96JJ7 (Q96JJ7 whole entry): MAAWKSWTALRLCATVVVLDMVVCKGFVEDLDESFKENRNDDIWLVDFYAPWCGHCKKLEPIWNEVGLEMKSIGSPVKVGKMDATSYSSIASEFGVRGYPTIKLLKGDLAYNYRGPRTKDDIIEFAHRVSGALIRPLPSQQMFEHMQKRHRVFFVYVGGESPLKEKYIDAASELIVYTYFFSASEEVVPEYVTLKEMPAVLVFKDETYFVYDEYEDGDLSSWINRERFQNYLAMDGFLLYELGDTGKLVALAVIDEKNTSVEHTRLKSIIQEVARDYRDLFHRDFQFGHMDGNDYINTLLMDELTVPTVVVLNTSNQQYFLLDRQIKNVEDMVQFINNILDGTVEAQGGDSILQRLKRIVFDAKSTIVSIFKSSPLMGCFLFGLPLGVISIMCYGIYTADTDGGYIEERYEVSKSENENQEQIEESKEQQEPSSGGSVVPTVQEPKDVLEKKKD
Sequence of UniProt Q6ZXV5 (Q6ZXV5 whole entry): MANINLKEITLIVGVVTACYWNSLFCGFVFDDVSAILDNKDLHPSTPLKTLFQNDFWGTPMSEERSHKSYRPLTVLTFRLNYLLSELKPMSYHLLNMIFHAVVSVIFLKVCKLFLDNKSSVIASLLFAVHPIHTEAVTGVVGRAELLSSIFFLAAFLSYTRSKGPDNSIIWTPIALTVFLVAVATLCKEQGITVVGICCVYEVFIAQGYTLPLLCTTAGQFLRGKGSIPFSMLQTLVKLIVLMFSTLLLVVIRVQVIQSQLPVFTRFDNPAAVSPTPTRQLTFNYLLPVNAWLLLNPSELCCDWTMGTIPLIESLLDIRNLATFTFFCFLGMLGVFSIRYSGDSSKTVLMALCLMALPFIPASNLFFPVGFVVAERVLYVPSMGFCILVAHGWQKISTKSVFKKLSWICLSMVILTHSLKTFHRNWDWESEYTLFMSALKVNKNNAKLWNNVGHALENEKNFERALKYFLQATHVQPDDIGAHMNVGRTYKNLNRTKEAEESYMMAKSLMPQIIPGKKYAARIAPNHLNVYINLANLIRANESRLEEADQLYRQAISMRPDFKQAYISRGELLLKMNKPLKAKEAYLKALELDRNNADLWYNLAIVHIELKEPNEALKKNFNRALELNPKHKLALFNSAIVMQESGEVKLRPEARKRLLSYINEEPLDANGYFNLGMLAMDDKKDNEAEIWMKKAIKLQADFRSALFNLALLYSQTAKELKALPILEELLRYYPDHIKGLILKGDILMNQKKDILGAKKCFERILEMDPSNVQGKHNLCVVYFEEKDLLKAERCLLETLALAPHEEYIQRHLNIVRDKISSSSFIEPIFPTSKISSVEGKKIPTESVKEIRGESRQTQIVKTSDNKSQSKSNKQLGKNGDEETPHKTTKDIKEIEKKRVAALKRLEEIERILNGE
Sequence of UniProt Q15025 (Q15025 whole entry): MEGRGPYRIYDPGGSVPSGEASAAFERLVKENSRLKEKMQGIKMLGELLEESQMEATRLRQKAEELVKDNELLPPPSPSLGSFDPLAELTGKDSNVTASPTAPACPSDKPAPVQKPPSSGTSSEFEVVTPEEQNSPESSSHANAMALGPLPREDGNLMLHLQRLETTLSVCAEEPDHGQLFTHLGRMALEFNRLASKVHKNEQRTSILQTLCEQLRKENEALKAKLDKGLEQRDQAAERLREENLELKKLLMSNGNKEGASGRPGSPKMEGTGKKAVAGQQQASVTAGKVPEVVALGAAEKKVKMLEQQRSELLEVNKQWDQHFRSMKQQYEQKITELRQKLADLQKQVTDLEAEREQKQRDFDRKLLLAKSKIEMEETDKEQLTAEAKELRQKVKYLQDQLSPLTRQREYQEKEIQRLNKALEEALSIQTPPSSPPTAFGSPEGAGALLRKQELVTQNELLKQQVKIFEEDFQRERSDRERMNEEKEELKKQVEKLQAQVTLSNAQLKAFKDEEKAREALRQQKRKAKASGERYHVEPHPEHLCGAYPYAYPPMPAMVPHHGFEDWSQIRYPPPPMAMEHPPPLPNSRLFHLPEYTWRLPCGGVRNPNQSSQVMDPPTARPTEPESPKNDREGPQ
Sequence of UniProt Q6UW68 (Q6UW68 whole entry): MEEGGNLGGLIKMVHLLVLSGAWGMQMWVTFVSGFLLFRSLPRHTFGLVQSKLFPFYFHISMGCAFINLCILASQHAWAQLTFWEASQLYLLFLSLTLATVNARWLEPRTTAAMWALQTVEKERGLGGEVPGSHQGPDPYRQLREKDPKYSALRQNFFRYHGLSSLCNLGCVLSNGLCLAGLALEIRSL
Sequence of UniProt P82094 (P82094 whole entry): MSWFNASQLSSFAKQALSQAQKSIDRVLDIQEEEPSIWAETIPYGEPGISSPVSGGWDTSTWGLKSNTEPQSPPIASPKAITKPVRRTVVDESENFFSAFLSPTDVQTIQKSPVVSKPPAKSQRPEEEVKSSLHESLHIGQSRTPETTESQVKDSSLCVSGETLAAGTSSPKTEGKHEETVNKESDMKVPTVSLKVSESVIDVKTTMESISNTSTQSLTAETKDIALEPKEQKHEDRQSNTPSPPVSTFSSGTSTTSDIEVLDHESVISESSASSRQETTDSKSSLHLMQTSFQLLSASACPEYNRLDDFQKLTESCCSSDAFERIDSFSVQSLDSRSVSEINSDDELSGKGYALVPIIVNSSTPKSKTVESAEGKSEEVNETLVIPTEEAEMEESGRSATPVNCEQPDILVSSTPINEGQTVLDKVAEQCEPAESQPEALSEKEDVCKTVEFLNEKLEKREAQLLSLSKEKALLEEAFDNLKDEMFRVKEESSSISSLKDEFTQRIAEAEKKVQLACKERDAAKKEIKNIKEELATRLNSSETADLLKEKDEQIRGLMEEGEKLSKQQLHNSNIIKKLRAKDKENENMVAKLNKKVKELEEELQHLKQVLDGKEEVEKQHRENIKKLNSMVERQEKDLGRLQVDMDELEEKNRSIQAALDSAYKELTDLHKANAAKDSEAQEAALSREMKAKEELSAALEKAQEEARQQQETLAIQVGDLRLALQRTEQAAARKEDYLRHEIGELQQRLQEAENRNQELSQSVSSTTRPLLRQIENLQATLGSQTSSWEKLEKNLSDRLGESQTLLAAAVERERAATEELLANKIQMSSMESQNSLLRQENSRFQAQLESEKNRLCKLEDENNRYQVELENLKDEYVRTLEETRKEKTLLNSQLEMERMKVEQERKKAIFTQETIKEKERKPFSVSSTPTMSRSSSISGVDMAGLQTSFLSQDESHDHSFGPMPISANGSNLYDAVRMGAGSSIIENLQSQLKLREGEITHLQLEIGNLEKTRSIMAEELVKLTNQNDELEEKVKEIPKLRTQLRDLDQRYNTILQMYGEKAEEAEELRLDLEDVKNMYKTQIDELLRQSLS
Sequence of UniProt O95379 (O95379 whole entry): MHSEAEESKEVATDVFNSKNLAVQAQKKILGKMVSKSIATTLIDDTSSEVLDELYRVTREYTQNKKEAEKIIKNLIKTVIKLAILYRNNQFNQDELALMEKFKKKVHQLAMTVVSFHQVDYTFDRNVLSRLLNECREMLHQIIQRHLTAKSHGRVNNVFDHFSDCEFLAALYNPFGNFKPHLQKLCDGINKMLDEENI
Sequence of UniProt A0PJW6 (A0PJW6 whole entry): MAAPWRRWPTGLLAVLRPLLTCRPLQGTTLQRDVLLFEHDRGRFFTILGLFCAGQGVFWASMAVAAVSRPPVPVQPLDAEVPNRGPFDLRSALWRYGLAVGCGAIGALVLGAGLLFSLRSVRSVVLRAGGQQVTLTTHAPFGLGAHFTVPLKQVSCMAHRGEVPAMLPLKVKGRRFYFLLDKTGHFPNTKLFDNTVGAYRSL
Sequence of UniProt Q8N511 (Q8N511 whole entry): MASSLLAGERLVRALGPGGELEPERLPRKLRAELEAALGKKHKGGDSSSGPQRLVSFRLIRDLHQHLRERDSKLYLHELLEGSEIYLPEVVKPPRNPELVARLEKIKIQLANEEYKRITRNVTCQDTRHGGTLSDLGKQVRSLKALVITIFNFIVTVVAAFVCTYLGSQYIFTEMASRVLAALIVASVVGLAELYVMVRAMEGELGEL

Target	thermal stability z-score (lipoamide; [1])	thermal stability z-score (lipoamide; arsenate co-treatment: none)	thermal stability z-score (potassium arsenate)
TMEM199 (UniProt Q8N511)	-0.91	-1.15	0.171
TMEM205 (UniProt Q6UW68)	1.01	0.394	1.79
TMEM206 (UniProt Q9H813)	0.109	0.0248	-0.299
TMEM208 (UniProt Q9BTX3)	0.0799	-0.132	-0.159
TMEM209 (UniProt Q96SK2)	-0.644	0.109	1.25
TMEM214 (UniProt Q6NUQ4)	-0.283	-0.131	-0.768
TMEM223 (UniProt A0PJW6)	-0.653	0.466	1.09
TMEM237 (UniProt Q96Q45)	0.0486	0.457	-1.23
TMEM245 (UniProt Q9H330)	1.28	0.28	1.86
TMEM259 (UniProt Q4ZIN3)	-0.193	-0.832	0.701
TMEM263 (UniProt Q8WUH6)	0.283	-0.54	1.43
TMF1 (UniProt P82094)	-0.551	-0.475	-0.126
TMOD1 (UniProt P28289)	0.167	0.298	0.225
TMOD3 (UniProt Q9NYL9)	-0.494	0.384	0.732
TMPIT|TMEM120A	0.15	0.398	-0.269
TMPO	0.194	0.0563	2.87
TMSB10 (UniProt P63313)	0.8	0.288	0.014
TMTC3 (UniProt Q6ZXV5)	-1.23	-0.796	0.605

Target	thermal stability z-score (lipoamide; [1])	thermal stability z-score (lipoamide; arsenate co-treatment: none)	thermal stability z-score (potassium arsenate)
TMUB2 (UniProt Q71RG4)	1.9	1.78	2.27
TMX1 (UniProt Q9H3N1)	0.948	1.34	-0.418
TMX2 (UniProt Q9Y320)	-1.05	-2.85	-1.96
TMX3 (UniProt Q96JJ7)	-0.503	-0.791	1.29
TMX4 (UniProt Q9H1E5)	-1.34	-1.22	0.19
TNFAIP1 (UniProt Q13829)	-0.526	-0.699	-0.727
TNFAIP2 (UniProt Q03169)	0.331	0.638	0.97
TNFAIP3 (UniProt P21580)	-0.409	-0.303	-0.522
TNFAIP8 (UniProt O95379)	0.127	-0.421	0.147
TNFRSF1A (UniProt P19438)	-0.0438	-0.00708	0.164
TNFRSF10A (UniProt O00220)	-1.82	-1.91	-1.65
TNFRSF10B (UniProt O14763)	-0.753	-0.414	0.582
TNIP1 (UniProt Q15025)	-0.261	-0.828	-0.0487
TNIP2 (UniProt Q8NFZ5)	0.0235	0.193	0.126
TNK1 (UniProt Q13470)	0.0556	0.223	-0.0895
TNKS1BP1 (UniProt Q9C0C2)	-0.0132	0.146	3.12
TNPO1 (UniProt Q92973)	-1.32	-1.31	1.98
